Source: US11096909B2, “Compounds for use in the treatment of cancer” (University of Oulu, priority 2016, dated 2021)

Legend:
[1] = target: T1, ARTD3/PARP3 (Homo sapiens, UniProt Q9Y6F1); assay: Differential scanning fluorimetry, ARTD3; type: binding; settings: read-out: ΔTm (DSF), ° C. ± STDEV
T1 construct: made in house; host or cells: E. coli
T1 sequence (Q9Y6F1 1-533): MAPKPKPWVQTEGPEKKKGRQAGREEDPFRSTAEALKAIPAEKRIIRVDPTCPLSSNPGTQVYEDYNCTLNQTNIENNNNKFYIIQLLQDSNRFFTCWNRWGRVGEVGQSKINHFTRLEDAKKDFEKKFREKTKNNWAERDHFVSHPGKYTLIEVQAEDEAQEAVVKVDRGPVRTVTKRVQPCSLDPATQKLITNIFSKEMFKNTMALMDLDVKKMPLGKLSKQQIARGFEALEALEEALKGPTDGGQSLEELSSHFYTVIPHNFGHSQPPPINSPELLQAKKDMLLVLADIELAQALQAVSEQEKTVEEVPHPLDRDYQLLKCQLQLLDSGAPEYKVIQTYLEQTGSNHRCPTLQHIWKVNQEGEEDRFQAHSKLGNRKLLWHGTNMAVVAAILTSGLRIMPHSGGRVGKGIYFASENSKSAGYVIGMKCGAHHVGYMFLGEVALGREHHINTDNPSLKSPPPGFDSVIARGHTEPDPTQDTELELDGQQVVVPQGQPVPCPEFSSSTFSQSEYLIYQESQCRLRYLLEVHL

[2] = target: T2, ARTD4/PARP4 (Homo sapiens, UniProt Q9UKK3); assay: Activity-based fluorescent assay, ARTD4; type: biochemical; set-up: made in house; host or cells: E. coli
[3] = target: T3, ARTD7/PARP15 (Homo sapiens, UniProt Q460N3); assay: biochemical
T3 sequence (Q460N3 1-678): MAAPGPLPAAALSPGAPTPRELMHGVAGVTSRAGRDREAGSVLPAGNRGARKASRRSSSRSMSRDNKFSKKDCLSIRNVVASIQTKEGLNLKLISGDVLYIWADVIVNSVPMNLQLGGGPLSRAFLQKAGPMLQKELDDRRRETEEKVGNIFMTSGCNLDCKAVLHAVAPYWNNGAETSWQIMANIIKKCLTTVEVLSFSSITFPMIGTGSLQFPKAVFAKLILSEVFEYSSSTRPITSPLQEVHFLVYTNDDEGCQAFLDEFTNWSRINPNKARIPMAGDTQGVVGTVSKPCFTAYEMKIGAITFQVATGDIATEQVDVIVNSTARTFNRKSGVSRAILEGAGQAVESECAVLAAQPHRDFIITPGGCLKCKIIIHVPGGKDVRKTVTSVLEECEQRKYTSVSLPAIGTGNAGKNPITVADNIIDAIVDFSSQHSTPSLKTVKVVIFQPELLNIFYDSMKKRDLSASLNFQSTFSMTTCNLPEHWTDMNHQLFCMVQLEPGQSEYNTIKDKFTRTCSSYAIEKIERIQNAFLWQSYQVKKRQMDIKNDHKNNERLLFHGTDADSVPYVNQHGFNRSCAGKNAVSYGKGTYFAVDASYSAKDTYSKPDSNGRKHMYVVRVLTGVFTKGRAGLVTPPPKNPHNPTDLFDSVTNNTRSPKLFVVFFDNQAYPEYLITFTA

[4] = system: HeLa cells overexpressing ARTD10; assay: Colony formation assay; type: cell-based; settings: control cells (ARTD10 not induced), 10 μM compound
Description: The different compounds were added as indicated with a final concentration of 10 μM. These were replenished every 48 h. (b) Quantification of the colony formation results. The data represent mean values of three independent experiments performed in duplicates with standard deviations.
The cells were grown in DMEM culture media with 10% FCS, and the plates were incubated at 37° C. with 5% CO2. After 24 h of seeding, over expression of ARTD10 was induced by adding 500 ng/ml doxycycline and the media were also supplemented with the tested compounds at 10 μM concentrations. The cells were allowed to proliferate for the next 10 days, after which they were stained with methylene blue to count the number of surviving colonies. The compounds and doxycycline were replenished every 48 h while fresh media (DMEM supplemented with 10% FCS) was added every four days.

[5] = target: T4, ARTD6/PARP5b (Homo sapiens, UniProt Q9H2K2); assay: Activity-based fluorescent assay, ARTD6; type: biochemical
T4 construct: made in house; host or cells: E. coli
T4 sequence (Q9H2K2 1-1166): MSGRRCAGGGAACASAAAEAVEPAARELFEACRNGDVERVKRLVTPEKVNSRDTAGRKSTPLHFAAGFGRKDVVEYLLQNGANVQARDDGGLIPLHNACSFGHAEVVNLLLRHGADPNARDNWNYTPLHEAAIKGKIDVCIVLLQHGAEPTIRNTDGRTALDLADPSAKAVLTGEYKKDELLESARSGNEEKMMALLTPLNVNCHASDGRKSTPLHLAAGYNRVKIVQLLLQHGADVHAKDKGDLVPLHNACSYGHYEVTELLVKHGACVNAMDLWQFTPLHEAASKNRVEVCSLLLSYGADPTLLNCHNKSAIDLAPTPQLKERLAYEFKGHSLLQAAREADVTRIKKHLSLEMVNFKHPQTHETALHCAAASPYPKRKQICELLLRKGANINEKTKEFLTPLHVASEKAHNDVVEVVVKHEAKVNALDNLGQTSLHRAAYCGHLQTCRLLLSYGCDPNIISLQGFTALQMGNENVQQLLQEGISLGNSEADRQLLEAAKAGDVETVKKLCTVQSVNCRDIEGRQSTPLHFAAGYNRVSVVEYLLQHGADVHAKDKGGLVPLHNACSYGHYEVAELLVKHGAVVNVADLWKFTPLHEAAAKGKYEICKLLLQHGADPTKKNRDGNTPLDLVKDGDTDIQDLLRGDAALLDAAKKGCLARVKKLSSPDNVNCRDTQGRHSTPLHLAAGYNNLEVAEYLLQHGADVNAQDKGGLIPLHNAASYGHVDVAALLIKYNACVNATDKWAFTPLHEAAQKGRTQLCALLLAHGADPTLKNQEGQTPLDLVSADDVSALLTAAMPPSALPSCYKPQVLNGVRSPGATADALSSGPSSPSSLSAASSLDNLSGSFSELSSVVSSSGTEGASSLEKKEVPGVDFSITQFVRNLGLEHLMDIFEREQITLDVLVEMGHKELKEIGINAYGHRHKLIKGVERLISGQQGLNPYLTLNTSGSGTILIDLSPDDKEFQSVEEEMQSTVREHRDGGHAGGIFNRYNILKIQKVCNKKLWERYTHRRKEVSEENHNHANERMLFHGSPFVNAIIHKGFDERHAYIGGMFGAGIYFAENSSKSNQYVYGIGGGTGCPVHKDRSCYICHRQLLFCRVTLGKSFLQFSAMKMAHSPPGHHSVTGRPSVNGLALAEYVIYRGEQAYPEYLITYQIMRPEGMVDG

[6] = target: T2, ARTD4/PARP4; assay: Differential scanning fluorimetry, ARTD4; settings: read-out: ΔTm (DSF), ° C. ± STDEV
[7] = target: T5, ARTD5/PARP5a (Homo sapiens, UniProt O95271); assay: Activity-based fluorescent assay, ARTD5; type: biochemical
T5 construct: made in house; host or cells: E. coli
T5 sequence (O95271 1-1327): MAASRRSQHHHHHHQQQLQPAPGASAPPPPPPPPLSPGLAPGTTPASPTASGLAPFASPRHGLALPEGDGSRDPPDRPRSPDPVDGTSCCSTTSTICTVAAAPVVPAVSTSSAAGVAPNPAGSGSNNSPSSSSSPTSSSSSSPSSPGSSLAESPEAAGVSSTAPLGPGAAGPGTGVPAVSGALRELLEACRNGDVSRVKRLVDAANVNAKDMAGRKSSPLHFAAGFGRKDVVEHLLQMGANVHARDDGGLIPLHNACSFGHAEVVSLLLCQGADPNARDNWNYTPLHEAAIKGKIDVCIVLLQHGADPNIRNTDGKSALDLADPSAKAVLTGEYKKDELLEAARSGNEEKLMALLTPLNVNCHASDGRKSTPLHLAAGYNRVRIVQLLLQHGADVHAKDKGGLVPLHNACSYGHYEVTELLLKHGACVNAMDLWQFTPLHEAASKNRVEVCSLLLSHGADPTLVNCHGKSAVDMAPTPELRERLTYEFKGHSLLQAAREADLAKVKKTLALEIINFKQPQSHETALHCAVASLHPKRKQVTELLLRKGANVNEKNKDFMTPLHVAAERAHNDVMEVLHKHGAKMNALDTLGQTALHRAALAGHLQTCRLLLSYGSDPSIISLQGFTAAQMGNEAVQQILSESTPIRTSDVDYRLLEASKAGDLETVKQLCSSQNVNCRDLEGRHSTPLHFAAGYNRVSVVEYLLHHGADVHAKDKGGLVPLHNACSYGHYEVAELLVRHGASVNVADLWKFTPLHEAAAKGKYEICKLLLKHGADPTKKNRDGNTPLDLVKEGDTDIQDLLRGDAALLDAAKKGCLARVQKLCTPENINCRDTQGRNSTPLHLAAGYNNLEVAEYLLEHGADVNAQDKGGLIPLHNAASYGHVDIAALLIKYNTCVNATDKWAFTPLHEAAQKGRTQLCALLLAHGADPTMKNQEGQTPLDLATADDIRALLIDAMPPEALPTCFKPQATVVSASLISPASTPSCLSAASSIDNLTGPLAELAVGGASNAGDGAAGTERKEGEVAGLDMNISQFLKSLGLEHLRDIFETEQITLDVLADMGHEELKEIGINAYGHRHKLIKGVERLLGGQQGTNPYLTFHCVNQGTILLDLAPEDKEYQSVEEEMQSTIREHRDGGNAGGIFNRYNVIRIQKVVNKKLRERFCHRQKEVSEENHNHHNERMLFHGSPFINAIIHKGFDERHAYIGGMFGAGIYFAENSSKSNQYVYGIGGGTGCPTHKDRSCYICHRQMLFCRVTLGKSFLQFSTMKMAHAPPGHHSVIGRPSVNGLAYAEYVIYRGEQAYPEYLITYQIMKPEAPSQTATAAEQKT

[8] = target: T1, ARTD3/PARP3; assay: Activity-based fluorescent assay, ARTD3; type: biochemical
[9] = system: HeLa cells treated with hydroxyurea; assay: DNA damage experiments with hydroxyurea; type: cell-based; settings: 5 μM OUL35 combined with hydroxyurea, cell confluence at 72 hours
Description: FIG. 4. […] Cell confluence is indicated at 72 hours (n=5, data present mean±SEM, n.s=not significant, *P<0.05, **P<0.01).
HeLa cells (ATCC) were grown in Dulbecco's modified Eagle's medium (DMEM, Sigma) supplemented with 10% fetal bovine serum (Lonza), 1× penicillin and streptomycin (Sigma) at 37° C. in a 5% CO2 atmosphere. 4000 cells/well were plated on 96-well plates. […] The DMSO content was kept below 0.05% in all experiments. The 96-well plates were placed in an IncuCyte ZOOM live cell imaging system (Essen BioScience) to follow the cell growth. The plates were scanned in the IncuCyte at 2 hour intervals for 72 hours. Data were analyzed by the IncuCyte Zoom software (Essen BioScience). The results are representative of three (cell growth curves) or five independent experiments (72 h end points) each done in six replicates. P values less than 0.05 were considered as significant (n.s=not statistically significant, *P<0.05, **P<0.01).

[10] = system: HeLa cells; assay: Cytotoxicity in HeLa cells; type: cell-based; settings: 10 μM
[11] = target: ARTD12/PARP12 (Homo sapiens, UniProt Q9H0J9); assay: biochemical
[12] = target: T6, ARTD15/PARP16 (Homo sapiens, UniProt Q8N5Y8); assay: Differential scanning fluorimetry, ARTD15
T6 sequence (Q8N5Y8 94-279 limits assumed): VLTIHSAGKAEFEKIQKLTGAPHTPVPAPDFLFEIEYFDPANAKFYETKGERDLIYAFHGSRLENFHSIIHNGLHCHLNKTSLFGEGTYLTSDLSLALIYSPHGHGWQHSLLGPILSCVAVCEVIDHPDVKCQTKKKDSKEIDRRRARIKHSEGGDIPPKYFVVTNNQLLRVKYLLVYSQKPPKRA

T2 sequence (Q9UKK3 whole entry): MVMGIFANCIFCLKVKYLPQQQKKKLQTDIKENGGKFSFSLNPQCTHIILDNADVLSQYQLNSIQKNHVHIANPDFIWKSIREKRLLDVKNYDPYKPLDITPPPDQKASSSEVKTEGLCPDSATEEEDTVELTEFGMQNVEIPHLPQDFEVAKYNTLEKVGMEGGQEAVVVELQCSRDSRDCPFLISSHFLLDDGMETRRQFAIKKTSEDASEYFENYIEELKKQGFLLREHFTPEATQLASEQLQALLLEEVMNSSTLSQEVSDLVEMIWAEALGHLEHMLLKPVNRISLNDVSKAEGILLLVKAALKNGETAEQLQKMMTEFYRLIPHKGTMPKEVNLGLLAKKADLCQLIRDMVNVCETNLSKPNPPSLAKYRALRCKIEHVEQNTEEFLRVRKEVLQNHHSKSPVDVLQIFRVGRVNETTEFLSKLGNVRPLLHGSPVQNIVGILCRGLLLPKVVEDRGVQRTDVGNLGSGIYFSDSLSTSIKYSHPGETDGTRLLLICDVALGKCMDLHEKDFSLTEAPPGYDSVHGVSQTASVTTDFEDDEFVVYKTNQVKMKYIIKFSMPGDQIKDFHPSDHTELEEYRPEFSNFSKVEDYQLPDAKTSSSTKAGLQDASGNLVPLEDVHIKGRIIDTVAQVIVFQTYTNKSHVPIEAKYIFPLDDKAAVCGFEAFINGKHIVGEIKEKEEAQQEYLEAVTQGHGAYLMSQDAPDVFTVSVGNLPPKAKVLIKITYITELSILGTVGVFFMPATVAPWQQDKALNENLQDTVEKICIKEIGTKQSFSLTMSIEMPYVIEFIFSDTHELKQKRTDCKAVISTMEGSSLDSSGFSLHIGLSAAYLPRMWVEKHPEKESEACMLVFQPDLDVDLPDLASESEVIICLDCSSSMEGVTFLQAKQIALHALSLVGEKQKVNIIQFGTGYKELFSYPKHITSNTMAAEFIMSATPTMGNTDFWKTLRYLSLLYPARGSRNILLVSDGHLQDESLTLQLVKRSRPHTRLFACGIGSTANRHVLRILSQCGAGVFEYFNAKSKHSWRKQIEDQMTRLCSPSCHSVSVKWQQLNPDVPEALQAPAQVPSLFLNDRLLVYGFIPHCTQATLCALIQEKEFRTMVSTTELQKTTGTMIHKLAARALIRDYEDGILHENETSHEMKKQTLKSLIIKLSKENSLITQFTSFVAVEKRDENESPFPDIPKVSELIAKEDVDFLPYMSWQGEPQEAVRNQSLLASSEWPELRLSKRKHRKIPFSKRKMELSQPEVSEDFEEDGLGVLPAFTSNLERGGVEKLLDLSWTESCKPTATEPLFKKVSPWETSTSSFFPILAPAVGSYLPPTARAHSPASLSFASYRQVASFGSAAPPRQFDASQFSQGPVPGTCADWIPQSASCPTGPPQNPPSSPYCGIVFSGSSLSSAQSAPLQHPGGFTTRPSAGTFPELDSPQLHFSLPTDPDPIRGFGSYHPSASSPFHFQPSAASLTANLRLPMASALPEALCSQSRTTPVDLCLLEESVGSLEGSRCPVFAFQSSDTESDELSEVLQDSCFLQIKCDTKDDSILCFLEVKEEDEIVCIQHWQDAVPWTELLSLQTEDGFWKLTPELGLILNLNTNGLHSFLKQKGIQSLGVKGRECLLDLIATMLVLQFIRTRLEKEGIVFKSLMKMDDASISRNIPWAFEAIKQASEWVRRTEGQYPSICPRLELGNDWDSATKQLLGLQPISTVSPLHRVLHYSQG
Sequence of ARTD12/PARP12 (Q9H0J9 whole entry): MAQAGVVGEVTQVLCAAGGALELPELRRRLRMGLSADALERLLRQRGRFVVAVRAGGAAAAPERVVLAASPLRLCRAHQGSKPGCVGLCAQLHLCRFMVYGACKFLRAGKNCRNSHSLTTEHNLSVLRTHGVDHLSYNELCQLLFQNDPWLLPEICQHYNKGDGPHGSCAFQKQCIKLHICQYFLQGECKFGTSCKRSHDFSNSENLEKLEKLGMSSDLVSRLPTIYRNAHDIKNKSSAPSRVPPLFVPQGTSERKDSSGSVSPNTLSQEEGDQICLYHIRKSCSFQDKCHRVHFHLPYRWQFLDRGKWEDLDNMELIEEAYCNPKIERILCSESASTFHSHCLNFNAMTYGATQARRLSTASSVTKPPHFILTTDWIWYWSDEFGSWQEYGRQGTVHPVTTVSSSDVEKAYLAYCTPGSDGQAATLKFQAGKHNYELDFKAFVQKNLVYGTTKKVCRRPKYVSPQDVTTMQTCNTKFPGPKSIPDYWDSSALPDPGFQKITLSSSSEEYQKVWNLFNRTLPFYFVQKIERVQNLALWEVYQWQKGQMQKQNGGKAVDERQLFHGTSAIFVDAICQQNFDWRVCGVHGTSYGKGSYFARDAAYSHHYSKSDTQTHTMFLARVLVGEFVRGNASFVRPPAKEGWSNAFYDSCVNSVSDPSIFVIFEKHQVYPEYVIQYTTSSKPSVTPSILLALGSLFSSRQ

**Q.** `NC(=O)c1ccc(Oc2ccc(C(N)=O)cc2)cc1` [OUL35, 4,4′-oxydibenzamide] was tested. Which ΔTm at 100 µM [1] did it give?
**A.** Its ΔTm at 100 µM is 0.09 ± 0.32 °C.

**Q.** And the IC50 [2]?
**A.** Its IC50 is 22.6 µM.

**Q.** And the “pIC50 ± SEM” value [2]?
**A.** The value was 4.65 ± 0.17.

**Q.** And the IC50 [3]?
**A.** The IC50 was greater than 20 µM.

**Q.** And the “toxicity in the control cells” value [4]?
**A.** Its value is “not toxic to control cells”.

**Q.** What about the IC50 [5] of the same molecule?
**A.** Its IC50 is greater than 100 µM.

**Q.** What about the ΔTm at 100 µM [6] of the same molecule?
**A.** The ΔTm at 100 µM was 0.84 ± 0.14 °C.

**Q.** What about the IC50 [7] of the same molecule?
**A.** Its IC50 is greater than 100 µM.

**Q.** And the IC50 [8]?
**A.** The IC50 was greater than 100 µM.

**Q.** And the “sensitivity to hydroxyurea-induced DNA damage” value [9]?
**A.** The value was “more sensitive to DNA damage in the presence of OUL35”.

**Q.** What about the cytotoxic effect [10] of the same molecule?
**A.** Its cytotoxic effect is “no cytotoxic effect”.

**Q.** What about the IC50 [11] of the same molecule?
**A.** The IC50 was greater than 100 µM.

**Q.** What about the “stabilization of catalytic domain (DSF)” value ([12]; 100 μM OUL35) of the same molecule?
**A.** The value was “stabilized the catalytic domains”.

**Q.** And the ΔTm at 100 µM ([12]; read-out: ΔTm (DSF), ° C. ± STDEV)?
**A.** Its ΔTm at 100 µM is 2.45 ± 0.11 °C.
